The subject of one assay is human erythrocytes. Put plainly: GSH:GSSG ratio in treated human erythrocytes. The settings on record: 24 hours, 0.6% hematocrit, DMSO control 125:1.
The target of assay [1] is glucose-6-phosphate dehydrogenase (G6PDH) (Homo sapiens, UniProt P11413). Put plainly: G6PDH enzyme activity in lysates of treated human erythrocytes. On the set-up: inhibition of the G6PDH activity: dose or concentration left out as unconfirmed.
The target of assay [2] is T1, glutathione reductase (GR) (Homo sapiens, UniProt P00390).
T1 sequence (P00390 1-479 isoform P00390-2): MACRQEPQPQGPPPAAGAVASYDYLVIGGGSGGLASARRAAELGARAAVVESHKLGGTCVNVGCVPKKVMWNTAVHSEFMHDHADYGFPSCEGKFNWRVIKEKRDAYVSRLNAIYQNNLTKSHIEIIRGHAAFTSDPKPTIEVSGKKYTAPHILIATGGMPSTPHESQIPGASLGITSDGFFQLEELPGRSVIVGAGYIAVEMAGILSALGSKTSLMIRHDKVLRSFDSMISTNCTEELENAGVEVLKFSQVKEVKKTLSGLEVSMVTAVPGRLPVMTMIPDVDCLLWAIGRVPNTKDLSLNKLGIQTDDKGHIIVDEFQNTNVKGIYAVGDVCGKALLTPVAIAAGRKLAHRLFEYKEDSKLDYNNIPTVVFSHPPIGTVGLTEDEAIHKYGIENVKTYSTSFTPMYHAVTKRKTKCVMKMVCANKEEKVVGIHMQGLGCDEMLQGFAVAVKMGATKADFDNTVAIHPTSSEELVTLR
Put plainly: Glutathione reductase (GR) enzyme activity in lysates of treated human erythrocytes. The settings on record: for inhibition of the enzyme GR: concentration not given.

Usually inhibition stands for the percentage by which the read-out fell short of the control.

glucose-6-phosphate dehydrogenase (G6PDH), sequence (P11413 whole entry): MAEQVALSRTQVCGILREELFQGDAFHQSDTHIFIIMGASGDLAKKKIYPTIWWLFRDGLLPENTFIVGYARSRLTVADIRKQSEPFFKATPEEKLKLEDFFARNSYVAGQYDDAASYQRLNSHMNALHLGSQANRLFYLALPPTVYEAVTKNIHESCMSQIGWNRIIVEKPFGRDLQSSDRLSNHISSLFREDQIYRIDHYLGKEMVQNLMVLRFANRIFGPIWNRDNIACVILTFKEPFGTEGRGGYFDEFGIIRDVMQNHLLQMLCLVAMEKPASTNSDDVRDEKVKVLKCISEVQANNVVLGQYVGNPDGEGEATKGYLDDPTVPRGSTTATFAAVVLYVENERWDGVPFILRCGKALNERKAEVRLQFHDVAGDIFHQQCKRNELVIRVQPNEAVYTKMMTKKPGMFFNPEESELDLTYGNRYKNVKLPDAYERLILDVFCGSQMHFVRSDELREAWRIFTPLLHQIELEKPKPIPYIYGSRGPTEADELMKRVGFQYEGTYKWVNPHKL

Consider `COC(=O)/C=C/C(=O)OC` [dimethylfumarate, (E)-2-butenedioic acid dimethyl ester], for which, in the assay with human erythrocytes (140 μM), the “GSH:GSSG ratio” value is “equal to 0 or approaching 0”. In addition, the inhibition at 140 µM in assay [1] (read-out: inhibition of G6PDH) and in assay [2] (read-out: GR inhibition) was at least 50% throughout. Also, the “inhibition of the enzyme GR” value in assay [2] is 50%.

For `Cc1ccc(S(=O)(=O)/C=C/C#N)cc1` [Bay 11-7082, 3-[(4-methylphenyl)sulfonyl]-(2E)-propenenitrile], the “GSH:GSSG ratio” value in the assay on human erythrocytes (20 μM) was “equal to 0 or approaching 0”. Also, the “inhibition of the G6PDH activity” value in assay [1] ((clinically relevant concentration), erythrocytes treated 24 hours) is “complete inhibition”. Further, the “inhibition of G6PDH” value in assay [1] (already in low concentrations) is “complete”. Also, the inhibition at 20 µM in assay [1] (read-out: G6PDH-inhibition) worked out at 100%. Also, the GSR inhibition entry in assay [2] (20 μM, erythrocytes 0.6% Hct treated 24 hours) is “complete GSR inhibition”. In addition, the “inhibition of the enzyme GR” value in assay [2] is reported as “completely”.
